Holding throughout (set-up): species or system AML cell lines (8); Primary HTS, single concentration about 10 uM, Cell Titer Glo viability; log10 luminescence, per cent inhibition relative to cycloheximide control
Holding throughout (conditions): 72 h, relative to cycloheximide control, log10 luminescence; inhibitor

Test [1] deals with MOLM-13.
The test system of test [2] is CMS.
Test [3] relates to U937.
For test [4], the system named is MV4-11.
Test [5] deals with ML-2.
Test [6] deals with CMK.
Test [7] relates to M07e.
Test [8] deals with CHRF288-11.

Each structure is given as a SMILES string.

Turning to `O=C1NC(=NCCc2ccccc2F)S/C1=C\c1ccc2ncccc2c1` [SJ000580983-1], the MOLM-13 %inh in test [1] is 4.839%. Further, the CMS %inh in test [2] amounted to 2.155%. The U937 %inh in test [3] was found to be 4.047%. Besides, the MV4-11 %inh in test [4] was -0.6215%. Further, the ML-2 %inh in test [5] was 8.671%. The CMK %inh in test [6] is 41.89%. Moreover, the M07e %inh in test [7] is 0.4729%. Further, in test [8], the CHRF288-11 %inh was 13.58%.
With `COc1ccc(O)c(C(=O)c2ccc(C(=O)N[C@@H]3CCCNC[C@H]3NC(=O)c3ccncc3)cc2)c1F` [SJ000580985-1], in test [1], the MOLM-13 %inh turned out to be 32.45%. In addition, in test [2], the CMS %inh came out at 1.516%. The U937 %inh in test [3] is 23.19%. For the same compound, the MV4-11 %inh in test [4] is 52.11%. For the same compound, in test [5], the ML-2 %inh worked out at 46.48%. Moreover, the CMK %inh in test [6] is recorded as 12.77%. Also, in test [7], the M07e %inh is reported as 4.451%. Besides, the CHRF288-11 %inh in test [8] came to 19.87%.
As to `Cn1cc(C2=C(Nc3ccccc3)C(=O)NC2=O)c2ccccc21` [SJ000580986-1], the MOLM-13 %inh in test [1] was found to be 1.455%. The CMS %inh in test [2] is listed as 2.457%. Also, the U937 %inh in test [3] is on record as -0.4269%. Moreover, the MV4-11 %inh in test [4] was -0.9881%. Moreover, in test [5], the ML-2 %inh is reported as 0.1627%. For the same compound, the CMK %inh in test [6] was -3.795%. The M07e %inh in test [7] is -1.248%. For the same compound, the CHRF288-11 %inh in test [8] is on record as -2.441%.
For the compound `N#Cc1ccc(C(=O)c2cnn(-c3ccc(F)cc3)c2N)cc1` [SJ000580987-1], the MOLM-13 %inh in test [1] is -1.146%. Besides, the CMS %inh in test [2] came out at 0.4553%. The U937 %inh in test [3] amounted to 0.0125%. The MV4-11 %inh in test [4] was -4.232%. Further, the ML-2 %inh in test [5] is given as -0.9573%. For the same compound, the CMK %inh in test [6] is -2.255%. For the same compound, in test [7], the M07e %inh is listed as -1.432%. In addition, the CHRF288-11 %inh in test [8] was -3.381%.
For the compound `Cn1c(=O)c(Oc2cccc(F)c2)cc2cnc(NC3CCOCC3)nc21` [SJ000580988-1], the MOLM-13 %inh in test [1] is recorded as 93.55%. The CMS %inh in test [2] is listed as 1.491%. In addition, the U937 %inh in test [3] is 1.883%. For the same compound, the MV4-11 %inh in test [4] is 0.1701%. In addition, in test [5], the ML-2 %inh is listed as -0.3057%. Besides, the CMK %inh in test [6] is given as 1.711%. Also, in test [7], the M07e %inh turned out to be 0.7165%. Further, in test [8], the CHRF288-11 %inh is listed as 0.6759%.
For the compound `CC(=O)N1CCC(Nc2ncc3cc(Oc4ccc(F)cc4F)c(=O)n(C)c3n2)CC1` [SJ000580990-1], in test [1], the MOLM-13 %inh is -1.534%. The CMS %inh in test [2] is recorded as 0.4119%. Moreover, the U937 %inh in test [3] is on record as 4.841%. Also, the MV4-11 %inh in test [4] is 0.8846%. Moreover, the ML-2 %inh in test [5] is given as -1.665%. Also, the CMK %inh in test [6] came out at 3.354%. Moreover, in test [7], the M07e %inh was 1.958%. The CHRF288-11 %inh in test [8] was found to be 0.9354%.
For the compound `Fc1ccc(-c2c(-c3ccncc3)[nH]c3nccnc23)cc1` [SJ000580991-1], the MOLM-13 %inh in test [1] was -0.4618%. For the same compound, the CMS %inh in test [2] was 2.205%. Further, the U937 %inh in test [3] worked out at 0.7484%. Moreover, the MV4-11 %inh in test [4] is on record as -5.653%. In addition, the ML-2 %inh in test [5] is on record as -4.337%. Further, the CMK %inh in test [6] was 11.62%. Besides, in test [7], the M07e %inh is -1.27%. The CHRF288-11 %inh in test [8] is given as 0.1739%.
With `Nc1c(C(=O)c2cccc(CCC3(O)CCCC3)c2)cnn1-c1ccc(F)cc1` [SJ000580994-1], in test [1], the MOLM-13 %inh came out at 0.5318%. Moreover, the CMS %inh in test [2] was 0.1004%. For the same compound, the U937 %inh in test [3] turned out to be 3.468%. Also, the MV4-11 %inh in test [4] came to 2.023%. The ML-2 %inh in test [5] is -0.2918%. Moreover, the CMK %inh in test [6] came to 2.532%. The M07e %inh in test [7] came to 2.495%. Moreover, in test [8], the CHRF288-11 %inh is 5.85%.
As for `Cn1cc(C2=C(c3cn(CCCO)c4ccccc34)C(=O)NC2=O)c2ccccc21` [SJ000580995-1], the MOLM-13 %inh in test [1] is on record as 52.73%. Also, the CMS %inh in test [2] is 6.597%. Also, the U937 %inh in test [3] came out at 2.993%. Further, the MV4-11 %inh in test [4] is recorded as 37.67%. In test [5], the ML-2 %inh was -3.665%. In addition, the CMK %inh in test [6] was determined as 64.37%. The M07e %inh in test [7] turned out to be 3.572%. In addition, the CHRF288-11 %inh in test [8] came out at 44.69%.
For `CCCCCNC(=O)[C@@H]1CCCN2C(=O)CC[C@H](NC(=O)[C@H](Cc3ccc(OP(=O)(O)O)cc3)NC(C)=O)C(=O)N12` [SJ000580996-1], the MOLM-13 %inh in test [1] is listed as -0.4821%. Besides, the CMS %inh in test [2] is given as -2.301%. Also, in test [3], the U937 %inh came out at 0.5533%. The MV4-11 %inh in test [4] is recorded as -4.998%. Moreover, in test [5], the ML-2 %inh is listed as -1.38%. The CMK %inh in test [6] is given as -6.908%. Moreover, the M07e %inh in test [7] is -1.329%. Besides, the CHRF288-11 %inh in test [8] is -2.344%.
Turning to `COc1ccc(CCN=C2NC(=O)/C(=C/c3ccc4ncccc4c3)S2)cc1` [SJ000580998-1], in test [1], the MOLM-13 %inh was 2.923%. Besides, the CMS %inh in test [2] is recorded as -0.7764%. In addition, the U937 %inh in test [3] is listed as 0.5801%. Besides, the MV4-11 %inh in test [4] was -1.039%. For the same compound, the ML-2 %inh in test [5] is recorded as -1.934%. Besides, the CMK %inh in test [6] was -3.047%. Besides, in test [7], the M07e %inh was determined as 1.057%. Also, the CHRF288-11 %inh in test [8] is recorded as -1.93%.
On to `CNCC#Cc1c(F)ccc2c1/C(=C/c1[nH]ccc1OC)C(=O)N2` [SJ000580999-1], for which the MOLM-13 %inh in test [1] was 105.9%. The CMS %inh in test [2] was 90.97%. In addition, the U937 %inh in test [3] came out at 85.1%. Besides, in test [4], the MV4-11 %inh is reported as 85.05%. Besides, the ML-2 %inh in test [5] is on record as 60.28%. Also, in test [6], the CMK %inh is reported as 104.6%. Also, the M07e %inh in test [7] is listed as 73.32%. Further, the CHRF288-11 %inh in test [8] came to 56.9%.
Regarding `O=C1NC(O)C(c2c[nH]c3ccccc23)=C1c1c[nH]c2ccccc12` (centres unmarked) [SJ000581000-1], the MOLM-13 %inh in test [1] is listed as -0.2184%. Besides, the CMS %inh in test [2] was -2.539%. In addition, the U937 %inh in test [3] is listed as -0.5983%. In addition, in test [4], the MV4-11 %inh came out at 0.3489%. In addition, the ML-2 %inh in test [5] is reported as -2.056%. Besides, in test [6], the CMK %inh is recorded as -1.548%. The M07e %inh in test [7] is -1.63%. In addition, the CHRF288-11 %inh in test [8] is recorded as 3.04%.
As for `Cn1cc(C2=C(Oc3ccccc3)C(=O)NC2=O)c2ccccc21` [SJ000581001-1], the MOLM-13 %inh in test [1] was -0.02006%. The CMS %inh in test [2] is -3.067%. The U937 %inh in test [3] is 0.6544%. Further, the MV4-11 %inh in test [4] is recorded as -0.8354%. The ML-2 %inh in test [5] is given as -1.623%. In addition, the CMK %inh in test [6] was -0.6422%. Moreover, the M07e %inh in test [7] is reported as -0.2429%. Further, the CHRF288-11 %inh in test [8] is given as -2.432%.
Take `Nc1c(C(=O)c2cccc(-c3cccnc3)c2)cnn1-c1ccc(F)cc1F` [SJ000581002-1]: the MOLM-13 %inh in test [1] came to 19.66%. Moreover, in test [2], the CMS %inh was 5.431%. In addition, in test [3], the U937 %inh was determined as 25.61%. For the same compound, the MV4-11 %inh in test [4] turned out to be 0.1873%. Also, the ML-2 %inh in test [5] is on record as 15.07%. The CMK %inh in test [6] amounted to 96.76%. For the same compound, the M07e %inh in test [7] was determined as 15.2%. Moreover, in test [8], the CHRF288-11 %inh is given as 23.74%.
For the compound `COc1ccc(C2=C(c3cn(C)c4ccccc34)C(=O)NC2=O)cc1OC` [SJ000581003-1], in test [1], the MOLM-13 %inh is listed as 0.7842%. Also, the CMS %inh in test [2] was 5.298%. The U937 %inh in test [3] turned out to be 6.689%. The MV4-11 %inh in test [4] is recorded as 4.678%. In addition, the ML-2 %inh in test [5] is on record as -1.913%. Further, the CMK %inh in test [6] stood at 38.95%. In test [7], the M07e %inh is -0.2143%. Besides, the CHRF288-11 %inh in test [8] was found to be 6.661%.
As to `O=C1NC(=N[C@@H](CO)c2ccccc2)S/C1=C\c1ccc2ncccc2c1` [SJ000581004-1], in test [1], the MOLM-13 %inh is reported as 24.69%. For the same compound, in test [2], the CMS %inh is on record as 4.436%. Further, the U937 %inh in test [3] amounted to 9.087%. For the same compound, the MV4-11 %inh in test [4] worked out at 41.34%. Besides, the ML-2 %inh in test [5] is reported as 3.929%. Moreover, in test [6], the CMK %inh came to 55.48%. In addition, the M07e %inh in test [7] is 12.47%. Moreover, the CHRF288-11 %inh in test [8] was determined as 15.94%.
With `O=C1NC(=N[C@H](CO)c2ccccc2)S/C1=C\c1ccc2ncccc2c1` [SJ000581004-2], the MOLM-13 %inh in test [1] is 7.874%. In addition, in test [2], the CMS %inh worked out at 2.583%. Further, the U937 %inh in test [3] came to 9.058%. Further, the MV4-11 %inh in test [4] was 3.175%. The ML-2 %inh in test [5] came to 2.475%. Further, the CMK %inh in test [6] is given as 28.24%. The M07e %inh in test [7] is on record as 10.69%. Besides, the CHRF288-11 %inh in test [8] was 1.03%.
`Nc1c(C(=O)c2cccc(C#CCO)c2)cnn1-c1ccc(F)cc1` [SJ000581005-1]: the MOLM-13 %inh in test [1] was -0.3055%. The CMS %inh in test [2] was determined as 3.189%. Moreover, the U937 %inh in test [3] was -1.339%. Further, in test [4], the MV4-11 %inh was -2.436%. Also, in test [5], the ML-2 %inh is recorded as -1.489%. In test [6], the CMK %inh was -3.113%. Besides, the M07e %inh in test [7] was determined as 1.15%. The CHRF288-11 %inh in test [8] is recorded as -2.428%.

The values above are taken from publication PMC6522510 (Nature Communications, 2019).
